Data reported in patent US12674058B2, “Compound, photosensitive resin composition comprising same, photosensitive resin film, color filter and CMOS image sensor” (SAMSUNG SDI CO., LTD., priority 2021, dated 2026).

test: Measurement of solubility in dilution solvent (PGMEA); type: physicochemical; conditions: 0.5 g compound in PGMEA, stirred at 25° C. for 1 hour
Method: 0.5 g of each compound Synthesis Examples 1 to 5 and Comparative Synthesis Examples 1 to 5 was added to a dilution solvent (PGMEA), and each corresponding solution was stirred with Mix-Rotar VMR-5 (Luchi Seieido Co., Ltd.) at 25° C. for 1 hour and then, evaluated with respect to solubility, and the results are shown in Table 2.
Solubility Evaluation Criteria
• 10 wt % or more of the compound (solute) was dissolved in the total amount of the diluent: ∘ • Less than 10 wt % of the compound (solute) was dissolved in the total amount of diluent: X

Structure (SMILES)	Solubility
Cc1cccc(C)c1N(CCCN1C(=O)c2ccccc2C1=O)C1=CC2Oc3cc(N(C)CCN(C)c4ccc5c(-c6ccccc6S(=O)(=O)[O-])c6ccc(N(CCCN7C(=O)c8ccccc8C7=O)c7c(C)cccc7C)cc6[o+]c5c4)ccc3C(c3ccccc3S(=O)(=O)O)=C2C=C1 (centres unmarked) [Comparative Synthesis Example 3, reference compound]	X (Less than 10 wt % of the compound (solute) was dissolved in the total amount of diluent)
Cc1cccc(C)c1N(CCCN1C(=O)c2ccccc2C1=O)C1=CC2Oc3cc(N(C)CCCCCCCCCCCN(C)c4ccc5c(-c6ccccc6S(=O)(=O)[O-])c6ccc(N(CCCN7C(=O)c8ccccc8C7=O)c7c(C)cccc7C)cc6[o+]c5c4)ccc3C(c3ccccc3S(=O)(=O)O)=C2C=C1 (centres unmarked) [Comparative Synthesis Example 4, reference compound]	X (Less than 10 wt % of the compound (solute) was dissolved in the total amount of diluent)
CCN(CCCCCCN(CC)c1ccc2c(-c3ccccc3S(=O)(=O)[O-])c3ccc(N(CN4C(=O)c5ccccc5C4=O)c4c(C)cccc4C)cc3[o+]c2c1)c1ccc2c(c1)OC1C=C(N(CN3C(=O)c4ccccc4C3=O)c3c(C)cccc3C)C=CC1=C2c1ccccc1S(=O)(=O)O (centres unmarked) [Comparative Synthesis Example 5, reference compound]	X (Less than 10 wt % of the compound (solute) was dissolved in the total amount of diluent)
CCN(CCCCCCN(CC)c1ccc2c(-c3ccccc3S(=O)(=O)[O-])c3ccc(N(CCCN4C(=O)c5ccccc5C4=O)c4c(C)cccc4C)cc3[o+]c2c1)c1ccc2c(c1)OC1C=C(N(CCCN3C(=O)c4ccccc4C3=O)c3c(C)cccc3C)C=CC1=C2c1ccccc1S(=O)(=O)O (centres unmarked) [Synthesis Example 1]	◯
CCN(CCCCCCN(CC)c1ccc2c(-c3ccccc3S(=O)(=O)[O-])c3ccc(N(CCCCN4C(=O)c5ccccc5C4=O)c4c(C)cccc4C)cc3[o+]c2c1)c1ccc2c(c1)OC1C=C(N(CCCCN3C(=O)c4ccccc4C3=O)c3c(C)cccc3C)C=CC1=C2c1ccccc1S(=O)(=O)O (centres unmarked) [Synthesis Example 2]	◯
CCN(CCCCCCN(CC)c1ccc2c(-c3ccccc3S(=O)(=O)[O-])c3ccc(N(CCN4C(=O)c5ccccc5C4=O)c4c(C)cccc4C)cc3[o+]c2c1)c1ccc2c(c1)OC1C=C(N(CCN3C(=O)c4ccccc4C3=O)c3c(C)cccc3C)C=CC1=C2c1ccccc1S(=O)(=O)O (centres unmarked) [Synthesis Example 3]	◯
CCN(CCCCCCN(CC)c1ccc2c(-c3ccccc3S(=O)(=O)[O-])c3ccc(N(CCCN4C(=O)c5ccccc5C4=O)c4ccccc4C)cc3[o+]c2c1)c1ccc2c(c1)OC1C=C(N(CCCN3C(=O)c4ccccc4C3=O)c3ccccc3C)C=CC1=C2c1ccccc1S(=O)(=O)O (centres unmarked) [Synthesis Example 4]	◯
Cc1cccc(C)c1N(CCCN1C(=O)c2ccccc2C1=O)C1=CC2Oc3cc(N(C)CCCN(C)c4ccc5c(-c6ccccc6S(=O)(=O)[O-])c6ccc(N(CCCN7C(=O)c8ccccc8C7=O)c7c(C)cccc7C)cc6[o+]c5c4)ccc3C(c3ccccc3S(=O)(=O)O)=C2C=C1 (centres unmarked) [Synthesis Example 5]	◯
